ChEMBL document CHEMBL1201862, “PubChem BioAssay data set” (2004)
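How tested: cells in 96-well plates exposed to compound for 48 hours at five concentrations. GI50 is the concentration that inhibits growth by half.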 Calls of active or inactive are those of the source. Rule as the data show it: active = GI50 up to about 1.1 µM and inactive = higher.

Legend:
Assay in all cases: NCI-60 cell line screen, 48 h
SNB-78 = tested on: SNB-78
DLD-1 = tested on: DLD-1
DMS-114 = tested on: DMS-114
M19-MEL = tested on: M19-MEL
DMS-273 = tested on: DMS-273
LXFL 529 = tested on: LXFL 529
XF498 = tested on: XF498
RXF 631 = tested on: RXF 631
KM-20L2 = tested on: KM-20L2

Q: For `O=C(Nc1ccccc1)Oc1ccccc1C1CCCCC1`, which GI50 (SNB-78) is on record?
A: Its GI50 is 17.7 µM (inactive).

Q: And the GI50 (DLD-1)?
A: Its GI50 is 13.9 µM (inactive).

Q: And the GI50 (DMS-114)?
A: The GI50 was 12 µM (inactive).

Q: What about the GI50 (M19-MEL) of the same molecule?
A: The GI50 was 16 µM (inactive).

Q: What about the GI50 (DMS-273) of the same molecule?
A: Its GI50 is 15.2 µM (inactive).

Q: And the GI50 (LXFL 529)?
A: The GI50 was 22.5 µM (inactive).

Q: What about the GI50 (XF498) of the same molecule?
A: Its GI50 is 19 µM (inactive).

Q: How did the GI50 (SNB-78) turn out when `CN(C)CC1CCCC/C1=N\OC(=O)c1ccccc1` (stereo unspecified) was run?
A: The GI50 was > 100 µM (inactive).

Q: And the GI50 (DLD-1)?
A: Its GI50 is > 100 µM (inactive).

Q: And the GI50 (DMS-114)?
A: The GI50 was > 100 µM (inactive).

Q: And the GI50 (M19-MEL)?
A: Its GI50 is > 100 µM (inactive).

Q: And the GI50 (RXF 631)?
A: Its GI50 is > 100 µM (inactive).

Q: What about the GI50 (DMS-273) of the same molecule?
A: Its GI50 is > 100 µM (inactive).

Q: And the GI50 (LXFL 529)?
A: Its GI50 is > 100 µM (inactive).

Q: And the GI50 (KM-20L2)?
A: Its GI50 is > 100 µM (inactive).

Q: And the GI50 (XF498)?
A: The GI50 was > 100 µM (inactive).

Q: How did the GI50 (SNB-78) turn out when `O=C1NC(=O)C2C(=O)NC(=O)C1C2c1c(Cl)cccc1Cl` (stereo unspecified) was run?
A: The GI50 was > 100 µM (inactive).

Q: And the GI50 (DLD-1)?
A: The GI50 was > 43.3 µM (inactive).

Q: And the GI50 (DMS-114)?
A: The GI50 was > 38.4 µM (inactive).

Q: What about the GI50 (RXF 631) of the same molecule?
A: Its GI50 is > 100 µM (inactive).

Q: What about the GI50 (DMS-273) of the same molecule?
A: The GI50 was > 42.7 µM (inactive).

Q: And the GI50 (LXFL 529)?
A: The GI50 was > 100 µM (inactive).

Q: And the GI50 (KM-20L2)?
A: Its GI50 is > 49.5 µM (inactive).

Q: And the GI50 (XF498)?
A: Its GI50 is > 100 µM (inactive).

Q: With `COC1(OC)CC2C(=O)N(Cc3ccccc3)C1C(S(=O)(=O)c1ccccc1)C2S(=O)(=O)c1ccccc1` (stereo unspecified) as the molecule, how does the GI50 (SNB-78) read?
A: Its GI50 is 18.5 µM (inactive).

Q: What about the GI50 (DLD-1) of the same molecule?
A: Its GI50 is 3.52 µM (inactive).

Q: And the GI50 (DMS-114)?
A: Its GI50 is 3.7 µM (inactive).

Q: And the GI50 (M19-MEL)?
A: The GI50 was 11.1 µM (inactive).

Q: What about the GI50 (RXF 631) of the same molecule?
A: Its GI50 is 16.7 µM (inactive).

Q: And the GI50 (DMS-273)?
A: The GI50 was 14.6 µM (inactive).

Q: What about the GI50 (LXFL 529) of the same molecule?
A: The GI50 was 3.48 µM (inactive).

Q: And the GI50 (KM-20L2)?
A: Its GI50 is 17.4 µM (inactive).

Q: How did the GI50 (SNB-78) turn out when `CC1(C)CC(c2c[nH]c3ccccc23)=CC2=Nc3ccccc3C21O` (stereo unspecified) was run?
A: Its GI50 is 76 µM (inactive).

Q: And the GI50 (DLD-1)?
A: Its GI50 is > 100 µM (inactive).

Q: What about the GI50 (DMS-114) of the same molecule?
A: Its GI50 is > 100 µM (inactive).

Q: And the GI50 (M19-MEL)?
A: Its GI50 is > 100 µM (inactive).

Q: What about the GI50 (DMS-273) of the same molecule?
A: Its GI50 is > 100 µM (inactive).

Q: What about the GI50 (LXFL 529) of the same molecule?
A: Its GI50 is 47.4 µM (inactive).

Q: What about the GI50 (KM-20L2) of the same molecule?
A: The GI50 was > 100 µM (inactive).

Q: And the GI50 (XF498)?
A: Its GI50 is 29.2 µM (inactive).

Q: For `COC(OC)c1cccc2c1C(=O)CCC1(CC2)OCCCCO1`, which GI50 (SNB-78) is on record?
A: The GI50 was > 100 µM (inactive).

Q: What about the GI50 (DLD-1) of the same molecule?
A: Its GI50 is > 100 µM (inactive).

Q: What about the GI50 (DMS-114) of the same molecule?
A: Its GI50 is > 100 µM (inactive).

Q: What about the GI50 (M19-MEL) of the same molecule?
A: The GI50 was > 100 µM (inactive).

Q: And the GI50 (DMS-273)?
A: The GI50 was > 100 µM (inactive).

Q: And the GI50 (LXFL 529)?
A: The GI50 was > 100 µM (inactive).

Q: What about the GI50 (KM-20L2) of the same molecule?
A: The GI50 was > 100 µM (inactive).

Q: For `CCC1CNC(=O)CC1CC(=O)OC` (stereo unspecified), which GI50 (SNB-78) is on record?
A: Its GI50 is > 100 µM (inactive).

Q: And the GI50 (DMS-114)?
A: The GI50 was > 100 µM (inactive).

Q: What about the GI50 (KM-20L2) of the same molecule?
A: The GI50 was > 100 µM (inactive).

Q: `CCCCCCCCCCC(=O)CCCCCCC(=O)O` was tested. Which GI50 (SNB-78) did it give?
A: Its GI50 is 69.8 µM (inactive).

Q: And the GI50 (DLD-1)?
A: The GI50 was 19 µM (inactive).

Q: What about the GI50 (DMS-114) of the same molecule?
A: The GI50 was 20.3 µM (inactive).

Q: And the GI50 (M19-MEL)?
A: The GI50 was 27 µM (inactive).

Q: What about the GI50 (RXF 631) of the same molecule?
A: Its GI50 is 19.9 µM (inactive).

Q: And the GI50 (DMS-273)?
A: Its GI50 is 19.3 µM (inactive).

Q: What about the GI50 (LXFL 529) of the same molecule?
A: Its GI50 is 18.2 µM (inactive).

Q: What about the GI50 (XF498) of the same molecule?
A: Its GI50 is 24.3 µM (inactive).

Q: `N#Cc1ccc(Oc2cccc(Oc3ccccc3)c2)cc1C#N` was tested. Which GI50 (SNB-78) did it give?
A: Its GI50 is > 10 µM (inactive).

Q: And the GI50 (DLD-1)?
A: The GI50 was > 10 µM (inactive).

Q: And the GI50 (DMS-114)?
A: The GI50 was 31.9 µM (inactive).

Q: And the GI50 (M19-MEL)?
A: The GI50 was > 10 µM (inactive).

Q: And the GI50 (RXF 631)?
A: The GI50 was 79.6 µM (inactive).

Q: What about the GI50 (LXFL 529) of the same molecule?
A: The GI50 was 61 µM (inactive).

Q: What about the GI50 (KM-20L2) of the same molecule?
A: Its GI50 is > 10 µM (inactive).

Q: What about the GI50 (XF498) of the same molecule?
A: The GI50 was > 10 µM (inactive).

Q: With `CCC(=O)C(C)C1=Nc2nnc(CCCCCCCc3nnc4n3C(=O)C(C(C)C(=O)CC)=N4)n2C1=O` (stereo unspecified) as the molecule, how does the GI50 (DMS-114) read?
A: The GI50 was > 100 µM (inactive).

Q: And the GI50 (M19-MEL)?
A: The GI50 was > 100 µM (inactive).

Q: What about the GI50 (LXFL 529) of the same molecule?
A: Its GI50 is > 100 µM (inactive).

Q: What about the GI50 (KM-20L2) of the same molecule?
A: The GI50 was > 100 µM (inactive).

Q: And the GI50 (XF498)?
A: The GI50 was > 100 µM (inactive).

Q: `Cc1c(/C=C2\CC/C(=C\c3[nH]c(C(=O)OC(C)(C)C)c(C)c3C)C2=O)[nH]c(C(=O)OC(C)(C)C)c1C` was tested. Which GI50 (SNB-78) did it give?
A: The GI50 was > 100 µM (inactive).

Q: What about the GI50 (DLD-1) of the same molecule?
A: The GI50 was > 100 µM (inactive).

Q: And the GI50 (DMS-114)?
A: Its GI50 is > 100 µM (inactive).

Q: And the GI50 (M19-MEL)?
A: The GI50 was > 100 µM (inactive).

Q: What about the GI50 (DMS-273) of the same molecule?
A: The GI50 was > 100 µM (inactive).

Q: What about the GI50 (LXFL 529) of the same molecule?
A: The GI50 was > 100 µM (inactive).

Q: What about the GI50 (KM-20L2) of the same molecule?
A: Its GI50 is > 100 µM (inactive).

Q: And the GI50 (XF498)?
A: The GI50 was > 100 µM (inactive).

Q: How did the GI50 (SNB-78) turn out when `O=C1C(CN2CCCCC2)CCCC1CN1CCCCC1` (stereo unspecified) was run?
A: Its GI50 is 21.4 µM (inactive).

Q: And the GI50 (DLD-1)?
A: Its GI50 is 10.1 µM (inactive).

Q: What about the GI50 (DMS-273) of the same molecule?
A: Its GI50 is 43.2 µM (inactive).

Q: What about the GI50 (LXFL 529) of the same molecule?
A: Its GI50 is 15 µM (inactive).

Q: And the GI50 (KM-20L2)?
A: Its GI50 is 14.4 µM (inactive).

Q: And the GI50 (XF498)?
A: The GI50 was 21.2 µM (inactive).

Q: For `COc1cc([C@@H]2c3cc4c(cc3[C@@H](NC(=O)c3ccc(OC(C)=O)cc3)C3COC(=O)[C@@H]32)OCO4)cc(OC)c1O` (stereo partly specified), which GI50 (SNB-78) is on record?
A: Its GI50 is 19.8 µM (inactive).

Q: What about the GI50 (DLD-1) of the same molecule?
A: The GI50 was 2.96 µM (inactive).

Q: And the GI50 (DMS-114)?
A: The GI50 was 1.2 µM (inactive).

Q: And the GI50 (M19-MEL)?
A: The GI50 was 8.71 µM (inactive).

Q: And the GI50 (RXF 631)?
A: Its GI50 is 1.76 µM (inactive).

Q: And the GI50 (DMS-273)?
A: Its GI50 is 0.359 µM (active).

Q: And the GI50 (LXFL 529)?
A: The GI50 was 9.62 µM (inactive).

Q: What about the GI50 (KM-20L2) of the same molecule?
A: The GI50 was 2.13 µM (inactive).

Q: And the GI50 (XF498)?
A: The GI50 was 0.813 µM (active).

Q: Which results are given for `COc1cc(CO)cc2c1[nH]c1ccccc12` [KOENOLINE]?
A: GI50 (SNB-78): > 25 µM (inactive); GI50 (DLD-1): > 25 µM (inactive); GI50 (DMS-114): > 25 µM (inactive); GI50 (M19-MEL): > 25 µM (inactive); GI50 (DMS-273): > 25 µM (inactive); GI50 (LXFL 529): > 25 µM (inactive); GI50 (KM-20L2): > 25 µM (inactive); GI50 (XF498): > 25 µM (inactive)

Q: With `NC1=C(O)c2cccc3cccc(c23)C1=O` as the molecule, how does the GI50 (SNB-78) read?
A: Its GI50 is > 100 µM (inactive).

Q: And the GI50 (DLD-1)?
A: Its GI50 is > 100 µM (inactive).

Q: What about the GI50 (DMS-114) of the same molecule?
A: Its GI50 is > 100 µM (inactive).

Q: What about the GI50 (M19-MEL) of the same molecule?
A: Its GI50 is > 100 µM (inactive).

Q: And the GI50 (RXF 631)?
A: Its GI50 is > 100 µM (inactive).

Q: What about the GI50 (DMS-273) of the same molecule?
A: The GI50 was > 100 µM (inactive).

Q: What about the GI50 (LXFL 529) of the same molecule?
A: The GI50 was > 100 µM (inactive).

Q: What about the GI50 (KM-20L2) of the same molecule?
A: Its GI50 is > 100 µM (inactive).

Q: Which results are given for `C[C@H](NS(=O)(=O)c1ccc(NC(=O)c2ccccc2)cc1)C(=O)O`?
A: GI50 (DLD-1): > 100 µM (inactive); GI50 (M19-MEL): > 100 µM (inactive); GI50 (DMS-273): > 100 µM (inactive); GI50 (LXFL 529): > 100 µM (inactive); GI50 (KM-20L2): > 100 µM (inactive); GI50 (XF498): > 100 µM (inactive)
